Data reported in the supplement of paper PMC13380429.

Legend:
Details in all cases: 72 h
U2OS [1] = assay: cell viability relative to DMSO; higher = less toxic
Vero E6 [2] = assay: as above
Calu-3 [3] = assay: as above
Caco-2 [4] = assay: as above
HepG2 [5] = assay: as above
U2OS [6] = assay: drug sensitivity score (DSS) for viability; higher = more toxic; extreme values may be limits of the assay
Vero E6 [7] = assay: as above
Calu-3 [8] = assay: as above
Caco-2 [9] = assay: as above
HepG2 [10] = assay: as above
U2OS [11] = assay: relative viability EC50 (midpoint between 100% and the lowest measured viability); higher = less toxic
Vero E6 [12] = assay: as above
Calu-3 [13] = assay: as above
Caco-2 [14] = assay: as above
HepG2 [15] = assay: as above

Compound	cell viability (U2OS [1]; 1 nM) [%]	cell viability (U2OS [1]; 10 nM) [%]	cell viability (U2OS [1]; 100 nM) [%]	cell viability (U2OS [1]; 1000 nM) [%]	cell viability (U2OS [1]; 10000 nM) [%]	cell viability (Vero E6 [2]; 1 nM) [%]	cell viability (Vero E6 [2]; 10 nM) [%]	cell viability (Vero E6 [2]; 100 nM) [%]	cell viability (Vero E6 [2]; 1000 nM) [%]	cell viability (Vero E6 [2]; 10000 nM) [%]	cell viability (Calu-3 [3]; 1 nM) [%]	cell viability (Calu-3 [3]; 10 nM) [%]	cell viability (Calu-3 [3]; 100 nM) [%]	cell viability (Calu-3 [3]; 1000 nM) [%]	cell viability (Calu-3 [3]; 10000 nM) [%]	cell viability (Caco-2 [4]; 1 nM) [%]	cell viability (Caco-2 [4]; 10 nM) [%]	cell viability (Caco-2 [4]; 100 nM) [%]	cell viability (Caco-2 [4]; 1000 nM) [%]	cell viability (Caco-2 [4]; 10000 nM) [%]	cell viability (HepG2 [5]; 1 nM) [%]	cell viability (HepG2 [5]; 10 nM) [%]	cell viability (HepG2 [5]; 100 nM) [%]	cell viability (HepG2 [5]; 1000 nM) [%]	cell viability (HepG2 [5]; 10000 nM) [%]	drug sensitivity score (U2OS [6])	drug sensitivity score (Vero E6 [7])	drug sensitivity score (Calu-3 [8])	drug sensitivity score (Caco-2 [9])	drug sensitivity score (HepG2 [10])	relative viability EC50 (U2OS [11]) [µM]	relative viability EC50 (Vero E6 [12]) [µM]	relative viability EC50 (Calu-3 [13]) [µM]	relative viability EC50 (Caco-2 [14]) [µM]	relative viability EC50 (HepG2 [15]) [µM]
C=C1CC[C@@]2(O)[C@H]3Cc4ccc(O)c5c4[C@@]2(CCN3CC2CC2)[C@H]1O5 [nalmefene]	95.6	98.6	93.7	99.4	106	106	96.9	96.8	98.3	107	96.6	97.5	106	88.6	103	95.5	94.6	93.8	102	99.3	102	95.3	110	95.1	113	0	0	0	0	0	> 10	> 10	> 10	> 10	> 10
CC(C)(C)NCc1cc(Nc2ccnc3cc(Cl)ccc23)c2c(c1O)CCCC2 [naphthoquine-phosphate]	96.3	96.6	103	95.9	98.1	106	110	108	99.3	93.5	96.3	98	101	91	109	108	99.7	98.5	99.6	83	106	106	106	99.6	98.6	0	0	0	0.4	0	> 10	> 10	> 10	> 10	> 10
CC(C)(C)C(=O)CN1C(=O)[C@H](NC(=O)Nc2cccc(C(=O)O)c2)CN(C2CCCCC2)c2ccccc21 [nastorazepide]	100	96.7	103	96.5	100	104	105	99.2	105	98.8	96.7	104	113	98.8	118	96.6	95.4	93.1	92.7	95.8	99.9	106	96.7	108	95.9	0	0	0	0	0	> 10	> 10	> 10	> 10	> 10
COc1ccc2c(c1OC)C(=O)O[C@@H]2[C@H]1c2c(cc3c(c2OC)OCO3)CCN1C [noscapine]	103	98.7	101	97.5	102	98.4	102	96.9	104	104	97.3	103	102	95.9	95.8	115	109	98	110	105	105	100	86.2	100	104	0	0	0	0	0	> 10	> 10	> 10	> 10	> 10
Cc1cc(C)c(S(=O)(=O)Nc2ccccc2C(F)(F)F)c(C)c1 [o-3M3FBS]	96.8	99.8	97.8	95.6	96.5	95.8	98.4	94.3	88.3	97.3	98.9	99.5	89.4	100	93.7	94.2	99.4	98.3	97.7	103	102	109	95.6	94.9	99.4	0	0	0	0	0	> 10	> 10	> 10	> 10	> 10
CCCCCCCC/C=C\CCCCCCCC(N)=O [oleamide]	98.8	103	97.1	100	91.3	97.3	99.3	100	100	101	107	98.7	93.9	104	89.7	99.3	92.4	95.3	96.5	99.7	104	101	99.2	92.7	104	0	0	0	0	0	> 10	> 10	> 10	> 10	> 10
CN(C)c1cc(CNCC(C)(C)C)c(O)c2c1C[C@H]1C[C@H]3[C@H](N(C)C)C(O)=C(C(N)=O)C(=O)[C@@]3(O)C(O)=C1C2=O [omadacycline]	102	103	99.9	102	98.2	96.3	101	97.1	98.8	97.3	108	91.4	102	88.9	92.4	107	95.1	100	97.4	96.4	101	90.9	96.9	105	87	0	0	0.3	0	0	> 10	> 10	> 10	> 10	> 10
